Reference: patent US7087762B2, “Long-lasting antimicrobial reaction product of allantoin and formaldehyde containing a low level of free formaldehyde” (ISP Investments Inc., priority 2002, dated 2006)

Assays:
Experiment in all cases: Minimum Inhibitory Concentration (MIC) test, tube dilution, static and cidal
Type in all cases: cell-based
[1] = tested on: Aspergillus niger ATCC 16404; details: A. niger
Experimental: (§1) The measurement of the lowest effective concentration of an anti-microbial or anti-microbial blend is important for recommending use concentrations. The MIC test is an in vitro tube dilution procedure used to identify effective concentrations of anti-microbials. In this test, the experimental compound is diluted by serial concentrations into nutrient culture media. Test organisms are then inoculated into the anti-microbial solutions.
(§2) If the experimental compound is effective, there is no growth observed in the test dilution tubes and they are clear. If the experimental compound is not effective, the test dilution tubes are cloudy, indicating growth. This test will determine static as well as cidal activity concentrations.
(§3) • 1. Laminar flow hood (Baker Sterilgard SG 400) • 2. 18×150 mm culture tubes • 3. Stock antimicrobial solution • 4. Media: Trypticase soy broth (BBL 11043) and AOAC Letheen broth (BBL 10914) • 5. Test organisms: Staphylococcus aureus ATCC 6538, Escherichia coli ATCC 8739, Pseudomonas aeruginosa ATCC 9027, Burkholderia cepacia ATCC 25416, Candida albicans ATCC 10231, and Aspergillus niger ATCC 16404. • 6. Spectrophotometer (Spectronic 20D, Milton Roy)
(§4) • 1. Antimicrobial stock solutions are prepared at predetermined concentrations (i.e., 10% through 0.07%) depending on the test material. Serial doubling dilutions are made as follows. Each culture tube contains 5 mls of trypticase soy broth. Five mls of the stock solution are added to the first tube and vortexed. 5 mls are then removed and placed into the second tube, (and so on, until the last tube). At the final test concentration, 5 mls of the broth/antimicrobial mixture is decanted out. • 2. The test organisms are prepared as with any organism inoculum (MLM 100-3, MLM 100-4, and MLM 100-5). A saline suspension of each organism is prepared. The bacterial organisms and the yeast are a standardized at a concentration of 1×10^6 cfu/ml. The mold inoculum is approximately 1×10^5 cfu/ml. • 3. Inoculate each culture tube with 0.10 mls of organism inoculum and vortex. • 4. Incubate bacterial tubes for 24 hours at 35° C. Incubate yeast or mold tubes for 48 hours at 25° C. Read for growth; turbid tubes for bacteria and yeast; mold clearly visible tubes. This is the minimum inhibitory concentration (static activity). • 5. After the tubes are read, transfer all “clear” tubes and the first cloudy (growth) tube into Letheen broth containing neutralizers. Incubate the Letheen broth tubes for 48 hours at the bacterial or fungal incubation temperatures. Read for growth; turbid tubes for bacteria and yeast; mold clearly visible in mold tubes. This is the cidal activity concentration. Discussion
(§5) The cidal activity of an anti-microbial can be rapidly screened by means of a MIC test before further evaluation tests, such as longer preservative efficacy tests, are performed. This test is a tube serial dilution procedure limited only by the water solubility of the material. Where anti-microbial materials are slightly insoluble, leaving the TSB broth turbid, a procedure modification can be made. Tubes are incubated for 24 hours (bacteria) or 48 hours (fungi) but instead of transfer to Letheen broth, the TSB tubes are streaked onto Letheen agar. The agar plates are then incubated appropriately and then read for absence or presence of growth. Depending on the degree of insolubility, a measure of cidal activity may be the only parameter measured.
(§6) Anti-microbial neutralization is important in this screening test. […] These are to be determined prior to testing.

[2] = tested on: Burkholderia cepacia ATCC 25416; details: B. cepacia
Experimental: as §1, §2, §3, §4, §5, §6

[3] = tested on: Candida albicans ATCC 10231; details: C. albicans
Experimental: as §1, §2, §3, §4, §5, §6

[4] = tested on: Escherichia coli ATCC 8739; details: E. coli
Experimental: as §1, §2, §3, §4, §5, §6

[5] = tested on: Pseudomonas aeruginosa ATCC 9027; details: P. aeruginosa
Experimental: as §1, §2, §3, §4, §5, §6

[6] = tested on: Staphylococcus aureus ATCC 6538; details: Staph aureus
Experimental: as §1, §2, §3, §4, §5, §6

SMILES: O=C1C(N(CO)C(=O)NCO)N(CO)C(=O)N1CO (stereo not drawn) [Germall II]
- CIDAL (cidal activity concentration) [1]: 2500 ppm
- STATIC (minimum inhibitory concentration) [1]: 2500 ppm
- CIDAL (cidal activity concentration) [2]: 600 ppm
- STATIC (minimum inhibitory concentration) [2]: 150 ppm
- CIDAL (cidal activity concentration) [3]: >5000 ppm
- STATIC (minimum inhibitory concentration) [3]: 5000 ppm
- CIDAL (cidal activity concentration) [4]: 1250 ppm
- STATIC (minimum inhibitory concentration) [4]: 600 ppm
- CIDAL (cidal activity concentration) [5]: 1250 ppm
- STATIC (minimum inhibitory concentration) [5]: 600 ppm
- CIDAL (cidal activity concentration) [6]: 1250 ppm
- STATIC (minimum inhibitory concentration) [6]: 300 ppm
